From US20240124445A1, “BENZENE RING COMPOUND AND USE THEREOF” (NANJING SHIJIANG MEDICINE TECHNOLOGY CO., LTD, priority 2020, published 2024)

Tested on: NCI-H82 cell
Assay: Cell viability (Promega CellTiter-Glo) of NCI-H82 cell
Type: cell-based
Settings: Homo sapiens, NCI-H82
Method: Cell viability was detected using the Promega CellTiter-Glo kit, the kit reflected cell viability by directly measuring intracellular ATP content. Small cell lung cancer cell NCI-H82 (ATCC, No. HTB-175) was cultured in 10% fetal bovine serum-containing RPMI1640 medium (+P/S).
Cell viability was detected using the Promega CellTiter-Glo kit, the kit reflected cell viability by directly measuring intracellular ATP content.
Daoy cell was cultured in 10% fetal bovine serum-containing DMEM medium (+P/S), and NCI-H82 cell was cultured in 10% fetal bovine serum-containing RPMI1640 medium (+P/S).
Cell viability was detected using the Promega CellTiter-Glo kit, the kit reflected cell viability by directly measuring intracellular ATP content. In the experiment, the IC50 value of different compounds on different tumor cell lines was detected to determine cell lines that were sensitive or insensitive to different compounds.
Tumor cells were cultured in 10% FBS-containing medium (+p/s), and incubated for 3 h or the following day, then the gradient diluted compound was added. After 3 days of culture, the relevant IC50 (50% inhibiting concentration) was measured. The name, source and culture conditions of each tumor cell line were as follows:
Cell line NCI-H82 (ATCC, No. HTB-175) was cultured in 10% fetal bovine serum-containing RPMI1640 medium (+P/S).

| Compound | IC50 [nM] |
| --- | --- |
| O=C(C[n+]1ccc2[nH]c(Cc3ccccc3)cc2c1)c1ccc(Cl)cc1 [AB24827A] | 2890 |
| O=C(C[n+]1ccc2cc(Cc3ccccc3)[nH]c2c1)c1ccc(Cl)cc1 [AB24828A] | 5790 |
| O=C(C[n+]1ccc2cc(-c3ccccc3)[nH]c2c1)c1ccc(Cl)cc1 [AB24831A] | 5410 |
| O=C(C[n+]1ccc2c(Cc3ccccc3)c[nH]c2c1)c1ccc(Cl)cc1 [AB24835A] | 2750 |
| O=C(C[n+]1ccc2c(Cc3ccccc3)c[nH]c2c1)c1ccc([N+](=O)[O-])cc1 [AB24863] | 3610 |
| Cc1ccc(C(=O)C[n+]2ccc3ccn(Cc4ccccc4)c3c2)cc1 [AB24945] | 4220 |

Same assay, conditions: Homo sapiens; NCI-H82 cell, Table 1; read-out: IC50

| Compound | IC50 [nM] |
| --- | --- |
| COc1ccc(C(=O)C[n+]2ccc(NCc3ccccc3)cc2)cc1 [AB24803A] | 230 |
| O=C(C[n+]1ccc(NCc2ccccc2)cc1)c1ccccc1 [AB24807A] | 540 |
| CC(C)(C(=O)c1ccc(Cl)cc1)[n+]1ccc(NCc2ccccc2)cc1 [AB24813] | 5930 |
| CC(Nc1cc[n+](CC(=O)c2ccc(Cl)cc2)cc1)c1ccccc1 (stereo not shown) [AB24814] | 5540 |
| O=C(C[n+]1ccc(NCc2ccccc2)cc1)c1ccc(Cl)nc1 [AB24817] | 4610 |
| Cc1cnc(C(=O)C[n+]2ccc(NCc3ccccc3)cc2)cn1 [AB24821] | 7170 |
| O=C(C[n+]1ccc(NCc2ccccn2)cc1)c1ccc(Cl)cc1 [AB24822] | 6700 |
| O=C(C[n+]1ccc2c(c1)CCC(c1ccccc1)N2)c1ccc(Cl)cc1 (stereo not shown) [AB24838] | 710 |
| O=C(C[n+]1ccc2c(c1)C=CCC(c1ccccc1)N2)c1ccc(Cl)cc1 (stereo not shown) [AB24839B] | 9130 |
| O=C(C[n+]1ccc2c(c1)CCCC(c1ccccc1)N2)c1ccc(Cl)cc1 (stereo not shown) [AB24839] | 990 |
| O=C1c2ccc(Cl)cc2CC1[n+]1ccc(NCc2ccccc2)cc1 (stereo not shown) [AB24840A] | 2590 |
| Cc1ccc(C(=O)Cn2cnc(/C=C/c3ccccc3)c2)cc1 [AB24850] | 5780 |
| Cc1ccc(C(=O)C[n+]2csc(NCc3ccccc3)c2)cc1 [AB24851] | 6570 |
| Cc1ccc(C(=O)C[n+]2ccc3c(Cc4cccc(Cl)c4)c[nH]c3c2)cc1 [AB24854] | 1570 |
| Cc1ccc(C(=O)C[n+]2ccc3c(Cc4ccccc4)c[nH]c3c2)cc1 [AB24859] | 2290 |
| Cc1ccccc1C(=O)C[n+]1ccc2c(Cc3ccccc3)c[nH]c2c1 [AB24861] | 4090 |
| Cc1ccc(C(=O)C[n+]2ccc3c(-c4cccc(C)c4)c[nH]c3c2)cc1 [AB24872] | 1240 |
| O=C(C[n+]1ccc2c(-c3ccccc3)c[nH]c2c1)c1cccc([N+](=O)[O-])c1 [AB24878] | 3580 |
| O=C(Nc1ccc([N+](=O)[O-])cc1)c1ccc(NCc2ccccc2)cc1 [AB24883] | 6370 |
| Cc1ccc(C(=O)C[n+]2ccc3c(c2)ncn3Cc2ccccc2)cc1 [AB24885] | 3130 |
| Cc1ccc(C(=O)C[n+]2ccc3c(ccn3Cc3ccccc3)c2)cc1 [AB24887] | 290 |
| O=C(C[n+]1ccc2c(ccn2Cc2ccccc2)c1)c1cccc([N+](=O)[O-])c1 [AB24888] | 850 |
| Cc1ccc(C(=O)C[n+]2ccc3c(ccn3-c3ccccc3)c2)cc1 [AB24895] | 2090 |
| O=C(C[n+]1ccc2c(-c3ccccc3)n[nH]c2c1)c1cccc([N+](=O)[O-])c1 [AB24898] | 6280 |
| Cc1cccc2c1C(=O)C([n+]1ccc(NCc3ccccc3)cc1)C2 (stereo not shown) [AB24904] | 3220 |

| Compound | IC50 [nM] |
| --- | --- |
| Cc1ccc2c(c1)C(=O)C([n+]1ccc(NCc3ccccc3)cc1)C2 (stereo not shown) [AB24905] | 2520 |
| Cc1ccc2c(c1)CC([n+]1ccc(NCc3ccccc3)cc1)C2=O (stereo not shown) [AB24906] | 1660 |
| O=C1c2cc(Cl)ccc2CCC1[n+]1ccc(NCc2ccccc2)cc1 (stereo not shown) [AB24913] | 180 |
| Cc1ccc2c(c1)C(=O)C([n+]1ccc(NCc3ccccc3)cc1)CC2 (stereo not shown) [AB24916] | 380 |
| Cc1ccc2c(c1)CCC([n+]1ccc(NCc3ccccc3)cc1)C2=O (stereo not shown) [AB24917] | 120 |
| O=C1c2cc([N+](=O)[O-])ccc2CCC1[n+]1ccc(NCc2ccccc2)cc1 (stereo not shown) [AB24920] | 1010 |
| O=C1c2ncccc2CCC1[n+]1ccc(NCc2ccccc2)cc1 (stereo not shown) [AB24923] | 6850 |
| O=C1c2cnccc2CCC1[n+]1ccc(NCc2ccccc2)cc1 (stereo not shown) [AB24924] | 3960 |
| CC(C)c1c[nH]c2c[n+](CC(=O)c3cccc(Cl)c3)ccc12 [AB24938] | 3960 |
| O=C1c2cc(F)ccc2CCC1[n+]1ccc(NCc2ccccc2)cc1 (stereo not shown) [AB24948] | 100 |
| O=C1c2ccc(F)cc2CCC1[n+]1ccc(NCc2ccccc2)cc1 (stereo not shown) [AB24949] | 680 |
| COc1cccc2c1CCC([n+]1ccc(NCc3ccccc3)cc1)C2=O (stereo not shown) [AB24954] | 390 |
| Cc1ccc(C(=O)C[n+]2ccc(N(C)Cc3ccccc3)cc2)cc1 [AB24955] | 2800 |
| Cc1ccc(C(=O)C[n+]2ccc(N3Cc4ccccc4C3)cc2)cc1 [AB24956] | 770 |
| Cc1ccc(C(=O)C[n+]2ccc(N3CCc4ccccc4C3)cc2)cc1 [AB24957] | 1060 |
| Cc1ccc(C(=O)C[n+]2ccc(N3CCc4ccccc4C3=O)cc2)cc1 [AB24959] | 4110 |
| Cc1ccc2c(c1)CCC([n+]1ccc(NCc3ccccc3)nc1)C2=O (stereo not shown) [AB24961] | 540 |
| COc1ccc(C(=O)C[n+]2ccc(NCc3ccccc3)nc2)cc1 [AB24963] | 330 |
| O=C(C[n+]1ccc(NCc2ccccc2)nc1)c1ccc(-c2ccccc2)cc1 [AB24964] | 1090 |
| O=C(C[n+]1ccc(NCc2ccccc2)nc1)c1cccc(OC(F)(F)F)c1 [AB24967] | 3880 |
| Nc1cccc(C(=O)C[n+]2ccc(NCc3ccccc3)cc2)c1 [AB24983] | 3400 |
| O=C(C[n+]1ccc2c(ccn2Cc2ccccc2)c1)c1ccc(C(F)(F)F)cc1 [AB24987] | 2000 |
| O=C(C[n+]1ccc2c(ccn2Cc2ccccc2)c1)c1ccc(OC(F)(F)F)cc1 [AB24988] | 920 |
| O=C(C[n+]1ccc2c(ccn2Cc2ccccc2)c1)c1cccc(Cl)c1 [AB24991] | 340 |
| O=C1c2ccc(C(F)(F)F)cc2CCC1[n+]1ccc2c(ccn2Cc2ccccc2)c1 (stereo not shown) [AB24996] | 1350 |

| Compound | IC50 [nM] |
| --- | --- |
| O=C(C[n+]1ccc2c(c1)CC(c1ccccc1)N2)c1ccc(OC(F)(F)F)cc1 (stereo not shown) [AB24999] | 1300 |
| O=C1c2ccc(C(F)(F)F)cc2CCC1[n+]1ccc2c(c1)CCC(c1ccccc1)N2 (stereo not shown) [AB27104] | 720 |
| O=C(C[n+]1ccc2c(Cc3ccccc3)c[nH]c2c1)c1ccc(C(F)(F)F)cc1 [AB27106] | 1620 |
| O=C(C[n+]1ccc2c(Cc3ccccc3)c[nH]c2c1)c1ccc(OC(F)(F)F)cc1 [AB27107] | 2180 |
| O=C1c2ccc(OC(F)(F)F)cc2CCC1[n+]1ccc(NCc2ccccc2)cc1 (stereo not shown) [AB27111] | 850 |
| O=C(C[n+]1ccc2[nH]c(Cc3ccccc3)cc2c1)c1ccc(C(F)(F)F)cc1 [AB27114] | 3930 |
| Cc1ccc(Cc2c[nH]c3c[n+](CC(=O)c4ccc(C(F)(F)F)cc4)ccc23)cc1 [AB27118] | 1720 |
| Cc1cc2c[n+](C3CCc4ccc(Cl)cc4C3=O)ccc2n1Cc1ccccc1 (stereo not shown) [AB27129] | 260 |
| Cc1ccc2c(c1)C(=O)C([n+]1ccc3c(c1)CCC(c1ccccc1)N3)CC2 (stereo not shown) [AB27133] | 340 |
| CCCn1ccc2c[n+](C3CCc4ccc(OC(F)(F)F)cc4C3=O)ccc21 (stereo not shown) [AB27145] | 250 |
| Cn1ccc2c[n+](C3CCc4ccc(C(F)(F)F)cc4C3=O)ccc21 (stereo not shown) [AB27148] | 2810 |
| CCn1ccc2c[n+](C3CCc4ccc(C(F)(F)F)cc4C3=O)ccc21 (stereo not shown) [AB27149] | 1980 |
| Cn1ccc2c[n+](C3CCc4ccc(OC(F)(F)F)cc4C3=O)ccc21 (stereo not shown) [AB27154] | 870 |
| CCn1ccc2c[n+](C3CCc4ccc(OC(F)(F)F)cc4C3=O)ccc21 (stereo not shown) [AB27155] | 650 |
| O=C1c2cc(OC(F)(F)F)ccc2CCC1[n+]1ccc2c(ccn2C2CC2)c1 (stereo not shown) [AB27158] | 550 |
| CC(c1ccccc1)n1ccc2c[n+](C3CCc4ccc(C(F)(F)F)cc4C3=O)ccc21 (stereo not shown) [AB27161] | 280 |
| CC(c1ccccc1)n1ccc2c[n+](C3CCc4ccc(OC(F)(F)F)cc4C3=O)ccc21 (stereo not shown) [AB27162] | 240 |
| Cc1ccc2c(c1)C(=O)C([n+]1ccc3c(ccn3C(C)c3ccccc3)c1)CC2 (stereo not shown) [AB27163] | 150 |
| CC(c1ccccc1)n1ccc2c[n+](C3CCc4ccc(Cl)cc4C3=O)ccc21 (stereo not shown) [AB27165] | 410 |
| CC(=O)N(Cc1ccccc1)c1cc[n+](CC(=O)c2ccc(C)cc2)cc1 [AB27166] | 160 |
| Cc1ccc(C(=O)C[n+]2ccc(NCc3ccccc3)c(C)c2)cc1 [AB27169] | 320 |
| Cc1cn(Cc2ccccc2)c2cc[n+](C3CCc4ccc(C(F)(F)F)cc4C3=O)cc12 (stereo not shown) [AB27174] | 100 |
| Cc1ccc2c(c1)C(=O)C([n+]1ccc3c(c1)c(C)cn3Cc1ccccc1)CC2 (stereo not shown) [AB27176] | 40 |
| Cc1ccc2c(c1)CCC([n+]1ccc3c(ccn3C(C)c3ccccc3)c1)C2=O (stereo not shown) [AB27184] | 230 |

Tested on: not listed separately
Assay: Stability in human liver microsome
Type: in vitro ADME
Settings: liver microsomes, pH 7.4, 1.5 μM drug solution, NADPH, 37° C., read-out: Human T1/2
Method: Vortexing for 10 min, the sample was centrifuged with 5594×g for 15 min in centrifuger (Thermo Multifuge×3R). • 10) taking 50 μL supernatant from the centrifuged sample, transferred to 96 well sample plate contain 50 μL water, mixed, and the sample was analyzed using LC-MS/MS.

| Compound | half-life at 1 µM [min] |
| --- | --- |
| O=C(C[n+]1ccc(NCc2ccccc2)cc1)c1ccccc1 [AB24807A] | 199 |
| O=C(C[n+]1ccc2c(c1)CCCC(c1ccccc1)N2)c1ccc(Cl)cc1 (stereo not shown) [AB24839] | 669 |
| O=C1c2ccc(Cl)cc2CC1[n+]1ccc(NCc2ccccc2)cc1 (stereo not shown) [AB24840A] | 140 |
| O=C1c2cc(Cl)ccc2CCC1[n+]1ccc(NCc2ccccc2)cc1 (stereo not shown) [AB24913] | 478 |
| O=C(C[n+]1ccc(NCc2ccccc2)nc1)c1ccc(-c2ccccc2)cc1 [AB24964] | 216 |
